Assay results from patent publication US20160185797A1, “ALKYNYL ALCOHOLS AND METHODS OF USE” (Genentech, Inc., priority 2013, published 2016).
pIC50: −log10 of the molar value.

Experiments:
[1] = molecular target: T1, nuclear factor-kappa B (NF-kB)-inducing kinase (NIK) (Homo sapiens, UniProt Q99558); assay: NIK enzyme inhibition assay (Transcreener ADP fluorescence polarization, NIK ADP-FP); assay type: biochemical
T1 construct: made in house; host or cells: baculovirus-infected insect cells

[2] = tested on: p52 (NF-kB2) nuclear translocation in HeLa cells; assay: p52 (NF-kB2) nuclear translocation assay in HeLa cells, anti-lymphotoxin beta receptor antibody stimulated (non-classical NF-kB signaling), high content imaging; assay type: cell-based; settings: Homo sapiens, 100 ng/mL anti-lymphotoxin beta receptor antibody for 5 hours, read-out: p52 HeLa Transloc Assay (IC50)
In short: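 HeLa cells in 10% FBS medium were treated with compound (0.2% DMSO final) and stimulated with 100 ng/mL anti-lymphotoxin beta receptor antibody for 5 h. Fixed cells were immunostained for p52 and imaged with DRAQ5 nuclear stain. Translocation is the nuclear to cytoplasmic intensity ratio, […].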

[3] = tested on: REL-A (p65) nuclear translocation in HeLa cells; assay: REL-A (p65) nuclear translocation assay in HeLa cells, TNF-α stimulated (classical NF-kB signaling), high content imaging; assay type: cell-based; settings: Homo sapiens, HeLa, compound 4.5 h, then 10 ng/mL TNF-α for 30 minutes, read-out: REL-A HeLa Transloc Assay (IC50)
In short: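 HeLa cells in medium with 10% fetal bovine serum were exposed to compounds (0.2% DMSO final) for 4.5 hours, then stimulated with 10 ng/mL TNF-α for 30 minutes. After fixation in 4% paraformaldehyde and permeabilization with 0.1% Triton X-100, cells were stained with 400 ng/mL anti-REL-A (p65) antibody, an Alexa488 secondary and DRAQ5. Opera imaging quantified the nuclear-to-cytoplasmic signal ratio to give IC50.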

T1 sequence (Q99558 whole entry): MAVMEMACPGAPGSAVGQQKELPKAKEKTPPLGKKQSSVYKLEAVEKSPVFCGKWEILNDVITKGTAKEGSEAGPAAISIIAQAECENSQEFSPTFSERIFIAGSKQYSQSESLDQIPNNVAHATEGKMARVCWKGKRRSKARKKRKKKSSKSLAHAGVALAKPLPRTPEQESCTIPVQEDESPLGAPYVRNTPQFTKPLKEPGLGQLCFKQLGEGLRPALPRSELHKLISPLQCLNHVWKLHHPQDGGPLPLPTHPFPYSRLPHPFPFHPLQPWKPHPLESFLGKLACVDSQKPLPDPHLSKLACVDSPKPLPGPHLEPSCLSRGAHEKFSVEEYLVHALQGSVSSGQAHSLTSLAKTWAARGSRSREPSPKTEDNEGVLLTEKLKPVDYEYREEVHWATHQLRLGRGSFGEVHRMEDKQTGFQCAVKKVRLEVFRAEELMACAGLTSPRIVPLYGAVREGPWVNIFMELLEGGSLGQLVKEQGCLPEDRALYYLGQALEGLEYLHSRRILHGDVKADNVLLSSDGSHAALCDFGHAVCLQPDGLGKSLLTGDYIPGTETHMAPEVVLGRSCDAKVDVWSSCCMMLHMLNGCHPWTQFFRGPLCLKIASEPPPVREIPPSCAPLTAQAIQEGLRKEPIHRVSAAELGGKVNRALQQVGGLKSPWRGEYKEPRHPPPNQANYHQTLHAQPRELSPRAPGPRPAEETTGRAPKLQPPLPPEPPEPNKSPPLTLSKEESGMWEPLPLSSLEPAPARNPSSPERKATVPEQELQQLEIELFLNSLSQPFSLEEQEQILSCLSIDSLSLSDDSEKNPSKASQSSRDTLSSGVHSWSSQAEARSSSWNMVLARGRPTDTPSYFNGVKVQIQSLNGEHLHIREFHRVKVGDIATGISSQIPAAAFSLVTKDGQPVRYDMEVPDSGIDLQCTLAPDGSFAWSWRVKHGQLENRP

Row | Compound | Ki [1] [nM] | pIC50 [2] | pIC50 [3]
1 | COC[C@@H](C)Nc1ccc(-c2cc(C#C[C@]3(O)CCN(C)C3=O)ccc2F)nc1C(N)=O [Example 148, 6-[2-fluoro-5-[2-[(3R)-3-hydroxy-1-methyl-2-oxo-pyrrolidin-3-yl]ethynyl]phenyl]-3-[[(1R)-2-methoxy-1-methyl-ethyl]amino] pyridine-2-carboxamide] | 0.19 | 7.28 | ≤ 5.70
2 | COC[C@H](C)Nc1ccc(-c2cc(C#C[C@]3(O)CCN(C)C3=O)ccc2F)nc1C(N)=O [Example 149, 6-[2-fluoro-5-[2-[(3R)-3-hydroxy-1-methyl-2-oxo-pyrrolidin-3-yl]ethynyl]phenyl]-3-[[(1S)-2-methoxy-1-methyl-ethyl]amino]pyridine-2-carboxamide] | 0.88 | 7.29 | ≤ 5.70
3 | Cc1nnc([C@](C)(O)C#Cc2cccc(-c3nc(C(N)=O)cc(-n4nccc4C)n3)c2)o1 [Example 150] | 0.99 | 6.20 | < 5.70
4 | Cc1cc(C(N)=O)nc(-c2cccc(C#C[C@]3(O)CCN(C)C3=O)c2)c1F [Example 151, 5-fluoro-6-[3-[2-[(3R)-3-hydroxy-l-methyl-2-oxo-pyrrolidin-3-yl]ethynyl]phenyl]-4-methyl-pyridine-2-carboxamide] | 0.67 | 6.40 | < 5.70
5 | CN1CC[C@@](O)(C#Cc2cc(-c3ccc(N)c(C(N)=O)n3)ccc2F)C1=O [Example 152, 3-amino-6-[4-fluoro-3-[2-[(3R)-3-hydroxy-l-methyl-2-oxo-pyrrolidin-3-yl]ethynyl]phenyl] pyridine-2-carboxamide] | < 0.05 | 7.34 | < 5.70
6 | COCCNc1cnc(-c2cc(C#C[C@]3(O)CCN(C)C3=O)c(F)cc2F)nc1C(N)=O [Example 153, 2-[2,4-difluoro-5[2-[(3R)-3-hydroxy-1-methyl-2-oxo-pyrrolidin-3-yl]ethynyl]phenyl]-5-(2-methoxyethylamino) pyrimidine-4-carboxamide] | 0.1 | 7.35 | < 5.70
7 | Cc1cn[nH]c1-c1cc(C(N)=O)nc(-c2cccc(C#C[C@]3(O)CCN(C)C3=O)c2)n1 [Example 155, 2-[3-[2-[(3R)-3-hydroxy-l-methyl-2-oxo-pyrrolidin-3-yl]ethynyl]phenyl]-6-(4-methyl-1H-pyrazol-5-yl) pyrimidine-4-carboxamide] | < 0.05 | 6.56 | < 5.70
8 | Cc1cc(C(N)=O)nc(-c2cc(C#C[C@]3(O)CCN(C)C3=O)ccc2F)c1 [Example 158, 6-[2-fluoro-5-[2-[(3R)-3-hydroxy-1-methyl-2-oxo-pyrrolidin-3-yl]ethynyl]phenyl]-4-methyl-pyridine-2-carboxamide] | 0.06 | 7.20 | < 5.70
9 | CN1CC[C@@](O)(C#Cc2cccc(-c3cc4c(C(F)(F)F)c[nH]c4c(C(N)=O)n3)c2)C1=O [Example 159, 5-[3-[2-[(3R)-3-hydroxy-l-methyl-2-oxo-pyrrolidin-3-yl]ethynyl]phenyl]-3-(trifluoromethyl)-1H-pyrrolo [2,3-c]pyridine-7-carboxamide] | < 0.05 | 7.14 | < 5.70
10 | CN1CC[C@@](O)(C#Cc2cc(-c3cccc(C(N)=O)n3)c3ncsc3c2)C1=O [Example 160] | 0.5 | 6.38 | < 5.70
11 | CN1CC[C@@](O)(C#Cc2cc(F)cc(-c3nc(C(N)=O)cn4ccnc34)c2)C1=O [Example 161, 8-[3-fluoro-5-[2-[(3R)-3-hydroxy-l-methyl-2-oxo-pyrrolidin-3-yl]ethynyl]phenyl]imidazol [1,2-a]pyrazine-6-carboxamide] | 0.33 | 6.35 | < 5.70
12 | CN1CC[C@@](O)(C#Cc2cccc(-c3cc(OC(F)F)cc(C(N)=O)n3)c2)C1=O [Example 162, 4-(difluoromethoxy)-6-[3-[2-[(3R)-3-hydroxy-l-methyl-2-oxo-pyrrolidin-3-yl]ethynyl]phenyl]pyridine-2-carboxamide] | < 0.05 | 7.17 | < 5.70
13 | Cc1cc(C(N)=O)nc(-c2ccc(F)c(C#C[C@]3(O)CCN(C)C3=O)c2)c1 [Example 164, 6-[4-fluoro-3-[2-[(3R)-3-hydroxy-1-methyl-2-oxo-pyrrolidin-3-yl]ethynyl]phenyl]-4-methyl-pyridine-2-carboxamide] | < 0.05 | 7.21 | < 5.70
14 | Cc1ncc(-c2cccc(C#C[C@]3(O)CCN(C)C3=O)c2)nc1C(N)=O [Example 165, 6-[3-[2-[(3R)-3-hydroxy-1-methyl-2-oxo-pyrrolidin-3-yl]ethynyl]phenyl]-3-methyl-pyrazine-2-carboxamide] | 0.08 | 6.74 | < 5.70
15 | Cc1ccn(-c2cc(C(N)=O)nc(-c3cccc(C#C[C@]4(O)CCN(C)C4=O)c3)n2)n1 [Example 166, 2-[3-[2-[(3R)-3-hydroxy-1-methyl-2-oxo-pyrrolidin-3-yl]ethynyl]phenyl]-6-(3-methylpyrazol-1-yl)pyrimidine-4-carboxamide] | < 0.05 | 7.23 | < 5.70
16 | CN1CC[C@@](O)(C#Cc2cc(F)cc(-c3nc(C(N)=O)c(N)cc3F)c2)C1=O [Example 167, 3-amino-5-fluoro-6-[3-fluoro-5-[2-[(3R)-3-hydroxy-1-methyl-2-oxo-pyrrolidin-3-yl]ethynyl]phenyl]pyridine-2-carboxamide] | < 0.05 | 7.07 | < 5.70
17 | Cc1cc(C(N)=O)nc(-c2cc(F)cc(C#C[C@]3(O)CCN(C)C3=O)c2)c1 [Example 168, 6-[3-fluoro-5-[2-[(3R)-3-hydroxy-1-methyl-2-oxo-pyrrolidin-3-yl]ethynyl]phenyl]-4-methyl-pyridine-2-carboxamide] | 0.16 | 6.89 | < 5.70
18 | COc1cc(-c2cccc(C#C[C@]3(O)CCN(C)C3=O)c2)nc(C(N)=O)c1C [Example 169, 6-[3-[2-[(3R)-3-hydroxy-1-methyl-2-oxo-pyrrolidin-3-yl]ethynyl]phenyl]-4-methoxy-3-methyl-pyridine-2-carboxamide] | 0.55 | 6.71 | < 5.70
19 | Cc1cc(-c2cccc(C#C[C@]3(O)CCN(C)C3=O)c2)nc(C(N)=O)c1N [Example 170, 3-amino-6-[3-[2-[(3R)-3-hydroxy-l-methyl-2-oxo-pyrrolidin-3-yl]ethynyl]phenyl]-4-methyl-pyridine-2-carboxamide] | < 0.1 | 7.59 | < 5.70
20 | COc1cc(C(N)=O)nc(-c2cc(F)cc(C#C[C@]3(O)CCN(C)C3=O)c2)c1 [Example 171, 6-[3-fluoro-5-[2-[(3R)-3-hydroxy-1-methyl-2-oxo-pyrrolidin-3-yl]ethynyl]phenyl]-4-methoxy-pyridine-2-carboxamide] | 0.24 | 6.88 | < 5.70
21 | Cc1nc(-c2cccc(C#C[C@]3(O)CCN(C)C3=O)c2)nc(C(N)=O)c1N [Example 172, 5-amino-2-[3-[2-[(3R)-3-hydroxy-1-methyl-2-oxo-pyrrolidin-3-yl]ethynyl]phenyl]-6-methyl-pyrimidine-4-carboxamide] | 0.36 | 7.11 | < 5.70
22 | CN1CC[C@@](O)(C#Cc2cccc(-c3cc(C(F)F)cc(C(N)=O)n3)c2)C1=O [Example 173, 4-(difluoromethyl)-6-[3-[2-[(3R)-3-hydroxy-1-methyl-2-oxo-pyrrolidin-3-yl]ethynyl]phenyl]pyridine-2-carboxamide] | 0.31 | 6.97 | < 5.70
23 | CN1CC[C@@](O)(C#Cc2cccc(-c3cc(N4CCCC4=O)cc(C(N)=O)n3)c2)C1=O [Example 174, 6-[3-[2-[(3R)-3-hydroxy-1-methyl-2-oxo-pyrrolidin-3-yl]ethynyl]phenyl]-4-(2-oxopyrrolidin-1-yl)pyridine-2-carboxamide] | 0.53 | 6.35 | < 5.70
